Series [1] is described as follows: Luminescence Cell-Based Dose Retest to Confirm Inhibitors of Cancer Stem Cells. [Related pubchem assays (depositor defined):AID2717, AID2721]. The format is functional. The note with it: Homo sapiens.
For series [2], the target named is T1, Ubiquitin-conjugating enzyme E2 N (Homo sapiens, UniProt P61088).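 Also: Dose-response confirmation in a TR-FRET assay detecting UBC13-driven polyubiquitin chain formation, inhibition measured.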
T1 sequence (P61088 whole entry): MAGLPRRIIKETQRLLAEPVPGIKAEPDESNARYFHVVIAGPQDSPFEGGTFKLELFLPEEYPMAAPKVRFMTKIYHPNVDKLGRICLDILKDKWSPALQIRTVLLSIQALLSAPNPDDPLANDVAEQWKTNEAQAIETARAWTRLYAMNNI
The format is functional.

In series [3] the target is T2, Microphthalmia-associated transcription factor (Homo sapiens, UniProt O75030).
T2 sequence (O75030 whole entry): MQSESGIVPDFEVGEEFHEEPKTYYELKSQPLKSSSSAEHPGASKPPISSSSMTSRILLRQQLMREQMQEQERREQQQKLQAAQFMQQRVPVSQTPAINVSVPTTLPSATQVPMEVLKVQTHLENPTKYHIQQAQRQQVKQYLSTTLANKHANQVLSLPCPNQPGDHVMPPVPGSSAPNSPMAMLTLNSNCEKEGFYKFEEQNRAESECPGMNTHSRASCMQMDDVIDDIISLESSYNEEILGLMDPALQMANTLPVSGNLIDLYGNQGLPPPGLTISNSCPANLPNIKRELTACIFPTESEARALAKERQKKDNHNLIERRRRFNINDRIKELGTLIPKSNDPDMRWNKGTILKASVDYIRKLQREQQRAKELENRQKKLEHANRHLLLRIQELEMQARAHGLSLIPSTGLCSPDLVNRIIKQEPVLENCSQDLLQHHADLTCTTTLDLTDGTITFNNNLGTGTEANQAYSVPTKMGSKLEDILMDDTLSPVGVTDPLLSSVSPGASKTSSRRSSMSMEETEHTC
As to the kind of experiment: reducers of TRPM1 reporter luminescence, concentration series – cell-based, SK-MEL-5, cherry-picked, set 3, MITF inhibitor project, dose response (AID 493073).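 Also: SK-MEL-5 melanoma cells with luciferase driven by the MITF target TRPM1 promoter.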 The format is functional.

The next series concerns INS1. As to the kind of experiment: INS-1E survival protection against cytokine death – cell-based, luminescence, retest, dose response (AID 449756).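 Also: cell death triggered by IL-1 beta plus TNF-alpha plus IFN-gamma mixture; protective hits raise ATP signal compared with cytokine alone wells.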 The format is functional. The note with it: Rattus norvegicus.
The next series deals with A-375. As to the kind of experiment: proliferation inhibition in MITF-low A375 cells – cell-based, cherry-pick samples, set 2, counter-screen for MITF modulator project, dose response (AID 540335). The format is functional. The note with it: Homo sapiens. (A counterscreen serves to expose hits that act by an unwanted route or on another target.)
A further series addresses Cytochrome P450 2C19 (Homo sapiens, UniProt P33261). As to the kind of experiment: Cytochrome panel assay with activity outcomes. Panel member name: p450-cyp2c19 Compounds with AC50 equal or less than 10 uM are considered active. The format is functional. The note with it: read-out: AC50.
The target of the next series is Cytochrome P450 2C9 (Homo sapiens, UniProt P11712).
Cytochrome P450 2C9, sequence (P11712 whole entry): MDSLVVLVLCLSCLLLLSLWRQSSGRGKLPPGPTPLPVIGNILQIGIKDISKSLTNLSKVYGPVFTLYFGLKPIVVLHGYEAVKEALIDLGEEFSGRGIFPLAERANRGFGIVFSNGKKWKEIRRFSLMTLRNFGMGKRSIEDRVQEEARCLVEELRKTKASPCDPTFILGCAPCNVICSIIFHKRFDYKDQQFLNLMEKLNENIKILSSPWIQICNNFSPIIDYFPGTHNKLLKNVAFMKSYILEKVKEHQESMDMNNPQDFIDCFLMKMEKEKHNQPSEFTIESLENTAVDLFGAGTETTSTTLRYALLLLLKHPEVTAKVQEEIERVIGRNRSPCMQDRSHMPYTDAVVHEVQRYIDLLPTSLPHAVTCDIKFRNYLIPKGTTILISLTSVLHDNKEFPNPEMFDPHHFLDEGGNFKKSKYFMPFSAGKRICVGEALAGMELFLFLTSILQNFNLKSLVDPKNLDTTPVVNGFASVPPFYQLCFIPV
The next series concerns the target Cytochrome P450 3A4 (Homo sapiens, UniProt P08684).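 Also: CYP3A4 tested as one member of a cytochrome P450 panel screen.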
In series [4] the target is T3, RNA-binding protein pos-1 (Caenorhabditis elegans, UniProt G5EF15).
T3 sequence (G5EF15 whole entry): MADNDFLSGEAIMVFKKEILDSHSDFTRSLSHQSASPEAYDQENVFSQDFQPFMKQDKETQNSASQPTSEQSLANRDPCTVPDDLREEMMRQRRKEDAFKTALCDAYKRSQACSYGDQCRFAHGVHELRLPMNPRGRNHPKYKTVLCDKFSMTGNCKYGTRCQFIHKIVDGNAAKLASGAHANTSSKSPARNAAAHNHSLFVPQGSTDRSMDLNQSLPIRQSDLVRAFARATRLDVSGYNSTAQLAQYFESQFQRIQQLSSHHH
Nature of the series: disruptors of C. elegans POS-1 RNA interaction – biochemical, fluorescence polarization, dose response (AID 1964).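 Also: purified POS-1 fused to maltose binding protein made in E. coli; potency of compounds blocking POS-1 binding to fluorescent RNA.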

Series [5] addresses Peroxisome proliferator-activated receptor gamma/Nuclear receptor coactivator 1 (Homo sapiens, UniProt P37231). Nature of the series: TR-FRET dose response biochemical High Throughput Screening assay for agonists of the steroid receptor coactivator 1 (SRC-1) recruitment by the peroxisome proliferator-activated receptor gamma (PPAR gamma): non-selective agonists. [Related pubchem assays (depositor defined):AID1300, AID1808, AID504735, AID631]. The format is protein assay. In general terms: TR-FRET usually uses a lanthanide donor and a delayed reading to cut background.

Series [6] addresses Peroxisome proliferator-activated receptor gamma/Nuclear receptor coactivator 3 (Homo sapiens, UniProt P37231). As to the kind of experiment: TR-FRET dose response biochemical High Throughput Screening assay for agonists of the steroid receptor coactivator 3 (SRC-3) recruitment by the peroxisome proliferator-activated receptor gamma (PPAR gamma): non-selective agonists. [Related pubchem assays: 1301 (Confirmation screen.), 1048 (Primary screen.)]. The format is functional.

Series [7] deals with T4, Zinc finger protein mex-5 (Caenorhabditis elegans, UniProt Q9XUB2).
T4 sequence (Q9XUB2 whole entry): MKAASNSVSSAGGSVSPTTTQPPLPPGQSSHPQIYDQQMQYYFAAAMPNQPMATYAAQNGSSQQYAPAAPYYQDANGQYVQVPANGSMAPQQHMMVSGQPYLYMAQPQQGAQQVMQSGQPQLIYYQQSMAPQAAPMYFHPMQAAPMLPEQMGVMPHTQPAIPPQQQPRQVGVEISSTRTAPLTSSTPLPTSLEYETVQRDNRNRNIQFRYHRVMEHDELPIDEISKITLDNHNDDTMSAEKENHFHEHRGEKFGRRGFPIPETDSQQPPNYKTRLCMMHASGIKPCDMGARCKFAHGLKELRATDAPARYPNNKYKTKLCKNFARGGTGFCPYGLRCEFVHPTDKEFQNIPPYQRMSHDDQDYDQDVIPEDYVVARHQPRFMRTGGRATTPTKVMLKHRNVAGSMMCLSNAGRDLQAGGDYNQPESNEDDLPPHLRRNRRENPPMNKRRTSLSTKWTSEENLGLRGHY
Nature of the series: potency of MEX-5 RNA-binding blockers – biochemical, C. elegans, fluorescence polarization, dose response (AID 1960).

Series [8] concerns the target Peroxisome proliferator-activated receptor gamma/Nuclear receptor coactivator 2 (Homo sapiens, UniProt P37231). As to the kind of experiment: TR-FRET dose response biochemical High Throughput Screening assay for agonists of the steroid receptor coactivator 2 (SRC-2) recruitment by the peroxisome proliferator-activated receptor gamma (PPAR gamma): non-selective agonists. [Related pubchem assays: 1297, 1032 ]. The format is functional.

For series [9], the target named is T5, Corticotropin-releasing factor receptor 2/Corticotropin-releasing factor-binding protein (Homo sapiens, UniProt P24387+Q13324).
T5 sequence (Q13324 whole entry): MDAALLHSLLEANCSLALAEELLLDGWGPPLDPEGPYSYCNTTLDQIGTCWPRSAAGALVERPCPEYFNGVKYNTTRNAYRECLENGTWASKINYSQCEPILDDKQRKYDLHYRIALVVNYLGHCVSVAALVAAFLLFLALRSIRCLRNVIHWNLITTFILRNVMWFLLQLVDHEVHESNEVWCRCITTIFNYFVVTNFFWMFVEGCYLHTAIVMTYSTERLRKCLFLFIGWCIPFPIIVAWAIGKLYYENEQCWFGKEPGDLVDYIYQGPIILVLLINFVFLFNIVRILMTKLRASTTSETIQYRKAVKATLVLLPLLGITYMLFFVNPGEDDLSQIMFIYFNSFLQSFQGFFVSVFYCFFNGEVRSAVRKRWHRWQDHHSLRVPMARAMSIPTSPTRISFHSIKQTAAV
T5 sequence (P24387 whole entry): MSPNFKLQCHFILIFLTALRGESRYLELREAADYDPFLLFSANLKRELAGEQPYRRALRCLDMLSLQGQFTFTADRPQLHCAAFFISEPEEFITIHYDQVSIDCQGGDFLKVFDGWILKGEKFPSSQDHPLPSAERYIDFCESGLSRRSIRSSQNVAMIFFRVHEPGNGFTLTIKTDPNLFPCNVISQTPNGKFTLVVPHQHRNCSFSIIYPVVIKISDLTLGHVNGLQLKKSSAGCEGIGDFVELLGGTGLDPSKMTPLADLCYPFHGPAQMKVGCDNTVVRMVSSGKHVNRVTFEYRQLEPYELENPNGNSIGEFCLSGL
As to the kind of experiment: Dose Response confirmation of uHTS hits for small molecule antagonists of the CRF-binding protein and CRF-R2 receptor complex. The format is functional. The note with it: read-out: IC50_Mean.

Series [10] deals with T5, Corticotropin-releasing factor receptor 2/Corticotropin-releasing factor-binding protein. As to the kind of experiment: activators of CRF receptor 2 with binding protein – uHTS hits, confirmation (AID 602473). The format is functional. The note with it: read-out: EC50_Mean.
Series [11] can be described thus: cells. The format is functional, cell-based.
The target in series [12] is T6, Nuclear receptor subfamily 0 group B member 1 (Homo sapiens, UniProt P51843).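 Also: HEK293T cells transfected with SF-1 and DAX-1 plus StAR promoter luciferase reporter.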
T6 sequence (P51843 whole entry): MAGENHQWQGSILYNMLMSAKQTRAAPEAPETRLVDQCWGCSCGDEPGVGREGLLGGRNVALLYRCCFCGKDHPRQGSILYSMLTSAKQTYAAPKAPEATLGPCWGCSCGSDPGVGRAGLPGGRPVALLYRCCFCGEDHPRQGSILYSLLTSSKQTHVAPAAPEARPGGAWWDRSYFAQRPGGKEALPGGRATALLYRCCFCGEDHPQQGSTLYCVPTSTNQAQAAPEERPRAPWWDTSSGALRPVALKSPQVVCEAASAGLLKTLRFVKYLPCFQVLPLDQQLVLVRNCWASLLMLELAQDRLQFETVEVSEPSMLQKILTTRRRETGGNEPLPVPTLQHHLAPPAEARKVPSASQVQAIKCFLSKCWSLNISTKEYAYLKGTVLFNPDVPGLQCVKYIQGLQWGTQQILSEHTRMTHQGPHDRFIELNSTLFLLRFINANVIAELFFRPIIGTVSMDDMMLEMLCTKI
The format is functional, cell-based.

The next series addresses Paired box protein Pax-8 (Homo sapiens, UniProt Q06710). Nature of the series: PAX8 transcriptional activity inhibition in RMG-I – RMG-I cells, luciferase, cherry-pick, dose response (AID 687027).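 Also: luciferase reporter driven by Pax8 target thyroperoxidase promoter measured by SteadyGlo luminescence.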 The format is functional, cell-based.
Another series addresses T7, Cytochrome P450 1A2 (Homo sapiens, UniProt P05177).
T7 sequence (P05177 whole entry): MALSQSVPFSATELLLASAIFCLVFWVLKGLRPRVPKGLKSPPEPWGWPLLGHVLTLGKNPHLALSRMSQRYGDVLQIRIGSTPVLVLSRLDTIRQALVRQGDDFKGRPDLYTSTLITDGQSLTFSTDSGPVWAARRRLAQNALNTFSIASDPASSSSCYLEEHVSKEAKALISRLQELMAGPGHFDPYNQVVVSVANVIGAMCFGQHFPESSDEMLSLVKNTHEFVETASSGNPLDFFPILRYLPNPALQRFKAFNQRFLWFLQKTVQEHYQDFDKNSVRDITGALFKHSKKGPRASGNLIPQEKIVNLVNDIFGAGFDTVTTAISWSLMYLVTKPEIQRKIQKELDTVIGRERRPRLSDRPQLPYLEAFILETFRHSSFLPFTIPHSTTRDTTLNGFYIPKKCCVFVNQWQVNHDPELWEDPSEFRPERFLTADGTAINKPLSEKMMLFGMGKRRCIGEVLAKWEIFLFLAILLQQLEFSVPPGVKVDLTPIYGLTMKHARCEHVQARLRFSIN

Series [13] is described as follows: microbe, parasite or virus in culture. The format is functional. The note with it: Mycobacterium tuberculosis.
The nature of series [14]: cells. The format is functional.

Each structure is given as a SMILES string. Calls of active or inactive are those of the source.

Cytochrome P450 3A4, sequence (P08684 whole entry): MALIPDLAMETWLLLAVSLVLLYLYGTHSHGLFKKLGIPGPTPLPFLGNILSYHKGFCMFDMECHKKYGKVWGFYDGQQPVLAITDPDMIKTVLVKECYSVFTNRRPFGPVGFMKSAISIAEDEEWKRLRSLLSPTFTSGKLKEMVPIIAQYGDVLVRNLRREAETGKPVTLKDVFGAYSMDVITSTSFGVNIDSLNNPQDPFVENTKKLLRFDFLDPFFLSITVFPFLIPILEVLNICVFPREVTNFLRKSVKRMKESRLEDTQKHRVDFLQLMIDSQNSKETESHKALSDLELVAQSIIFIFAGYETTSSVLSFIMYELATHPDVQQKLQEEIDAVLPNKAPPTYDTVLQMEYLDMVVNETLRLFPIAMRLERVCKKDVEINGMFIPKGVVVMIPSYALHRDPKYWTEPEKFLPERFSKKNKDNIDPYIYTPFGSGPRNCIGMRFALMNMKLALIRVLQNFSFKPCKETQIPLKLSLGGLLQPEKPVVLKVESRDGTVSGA
Cytochrome P450 2C19, sequence (P33261 whole entry): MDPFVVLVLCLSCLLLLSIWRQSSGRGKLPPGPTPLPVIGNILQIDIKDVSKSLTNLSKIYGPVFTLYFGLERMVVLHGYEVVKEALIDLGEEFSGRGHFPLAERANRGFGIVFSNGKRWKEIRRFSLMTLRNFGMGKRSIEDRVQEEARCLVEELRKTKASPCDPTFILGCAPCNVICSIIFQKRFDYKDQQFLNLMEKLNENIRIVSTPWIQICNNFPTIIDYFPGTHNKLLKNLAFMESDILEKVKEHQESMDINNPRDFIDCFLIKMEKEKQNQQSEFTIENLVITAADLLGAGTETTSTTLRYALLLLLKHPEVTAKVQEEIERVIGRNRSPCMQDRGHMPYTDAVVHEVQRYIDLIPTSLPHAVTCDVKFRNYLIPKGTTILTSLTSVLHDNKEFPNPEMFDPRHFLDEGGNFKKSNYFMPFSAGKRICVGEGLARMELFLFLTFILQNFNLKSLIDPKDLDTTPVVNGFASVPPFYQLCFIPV
Peroxisome proliferator-activated receptor gamma/Nuclear receptor coactivator 3, sequence (P37231 whole entry): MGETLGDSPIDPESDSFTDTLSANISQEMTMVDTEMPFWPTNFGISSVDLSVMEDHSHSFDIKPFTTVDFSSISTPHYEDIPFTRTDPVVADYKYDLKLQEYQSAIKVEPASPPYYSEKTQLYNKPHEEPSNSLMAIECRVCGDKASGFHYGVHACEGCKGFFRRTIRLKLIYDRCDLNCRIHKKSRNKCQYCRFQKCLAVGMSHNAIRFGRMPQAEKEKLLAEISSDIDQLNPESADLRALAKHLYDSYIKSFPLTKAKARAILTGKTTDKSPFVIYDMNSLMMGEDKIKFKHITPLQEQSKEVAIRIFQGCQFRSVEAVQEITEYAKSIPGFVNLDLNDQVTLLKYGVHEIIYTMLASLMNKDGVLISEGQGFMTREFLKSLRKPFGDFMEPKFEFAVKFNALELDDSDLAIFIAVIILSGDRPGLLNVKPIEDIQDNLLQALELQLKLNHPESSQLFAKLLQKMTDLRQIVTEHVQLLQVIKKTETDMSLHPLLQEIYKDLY
Peroxisome proliferator-activated receptor gamma/Nuclear receptor coactivator 3, sequence (Q9Y6Q9 whole entry, further chain): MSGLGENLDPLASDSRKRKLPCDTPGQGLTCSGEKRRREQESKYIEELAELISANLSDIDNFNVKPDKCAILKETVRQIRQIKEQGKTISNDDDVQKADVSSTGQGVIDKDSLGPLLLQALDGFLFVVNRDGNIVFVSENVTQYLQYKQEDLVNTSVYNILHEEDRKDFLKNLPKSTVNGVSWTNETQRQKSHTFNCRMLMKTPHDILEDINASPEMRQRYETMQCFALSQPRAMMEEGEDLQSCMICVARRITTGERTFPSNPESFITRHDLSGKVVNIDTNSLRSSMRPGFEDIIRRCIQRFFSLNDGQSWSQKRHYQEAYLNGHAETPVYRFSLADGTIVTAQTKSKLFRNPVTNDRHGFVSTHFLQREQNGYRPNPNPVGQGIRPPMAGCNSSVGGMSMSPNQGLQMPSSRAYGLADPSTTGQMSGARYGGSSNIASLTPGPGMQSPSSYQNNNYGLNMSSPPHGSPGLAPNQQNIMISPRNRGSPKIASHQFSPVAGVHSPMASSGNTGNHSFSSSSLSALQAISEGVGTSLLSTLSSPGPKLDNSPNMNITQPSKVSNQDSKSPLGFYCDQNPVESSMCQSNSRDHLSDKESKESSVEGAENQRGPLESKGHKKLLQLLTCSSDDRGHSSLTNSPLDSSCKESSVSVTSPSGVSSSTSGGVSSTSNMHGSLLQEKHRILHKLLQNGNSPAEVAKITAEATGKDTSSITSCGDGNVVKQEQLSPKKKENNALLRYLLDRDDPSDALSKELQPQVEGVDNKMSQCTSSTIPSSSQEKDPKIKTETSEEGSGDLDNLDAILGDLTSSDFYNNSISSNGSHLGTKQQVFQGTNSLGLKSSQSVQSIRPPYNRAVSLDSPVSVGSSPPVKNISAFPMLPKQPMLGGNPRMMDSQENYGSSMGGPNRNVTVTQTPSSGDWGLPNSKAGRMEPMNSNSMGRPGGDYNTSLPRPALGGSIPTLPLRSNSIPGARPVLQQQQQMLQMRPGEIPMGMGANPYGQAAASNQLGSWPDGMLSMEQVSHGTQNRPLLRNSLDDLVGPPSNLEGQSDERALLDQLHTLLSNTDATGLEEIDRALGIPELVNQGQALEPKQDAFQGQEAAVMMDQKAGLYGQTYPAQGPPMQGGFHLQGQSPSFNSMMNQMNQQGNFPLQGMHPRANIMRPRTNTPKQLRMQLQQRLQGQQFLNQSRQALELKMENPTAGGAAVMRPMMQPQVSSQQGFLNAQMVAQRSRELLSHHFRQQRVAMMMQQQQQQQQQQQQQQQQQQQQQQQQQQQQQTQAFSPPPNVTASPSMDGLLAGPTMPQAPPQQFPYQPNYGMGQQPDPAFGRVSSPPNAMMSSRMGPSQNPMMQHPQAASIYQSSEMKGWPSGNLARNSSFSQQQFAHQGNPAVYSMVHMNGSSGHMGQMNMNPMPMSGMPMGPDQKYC
Paired box protein Pax-8, sequence (Q06710 whole entry): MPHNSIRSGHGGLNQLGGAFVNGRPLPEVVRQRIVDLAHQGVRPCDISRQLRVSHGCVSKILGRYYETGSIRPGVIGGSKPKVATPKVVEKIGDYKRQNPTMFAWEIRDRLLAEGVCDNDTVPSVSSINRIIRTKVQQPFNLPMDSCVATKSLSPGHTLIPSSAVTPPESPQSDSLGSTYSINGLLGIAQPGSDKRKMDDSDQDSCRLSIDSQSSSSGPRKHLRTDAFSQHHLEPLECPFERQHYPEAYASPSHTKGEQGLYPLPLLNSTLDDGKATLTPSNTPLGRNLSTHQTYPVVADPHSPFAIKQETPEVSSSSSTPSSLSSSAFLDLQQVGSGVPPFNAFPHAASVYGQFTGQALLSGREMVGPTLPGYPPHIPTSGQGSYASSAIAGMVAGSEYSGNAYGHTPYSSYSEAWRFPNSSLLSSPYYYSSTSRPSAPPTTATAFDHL

Turning to `CCN1CCN(CCCNC(=O)c2ccc3c(c2)NC(=O)/C(=C\c2cccc(C)c2)S3)CC1`, the AC50 is 4.17 µM (active) in [1], 9.93 µM (active) in series [3], 6.5 µM (active) with INS1 and 17.5 µM (active) with A-375. In addition, the IC50 in series [2] was > 20 µM (inactive).
With `CCCC(=O)N1CCN(c2ccc(NC(=O)c3sc4ccccc4c3Cl)cc2)CC1`, the AC50 at Cytochrome P450 2C19 was 0.158 µM (inconclusive); at Cytochrome P450 2C9 it was 5.01 µM (inconclusive); at Cytochrome P450 3A4, “inconclusive”.
For the molecule `C=CCOc1ccc(C2C(C(=O)c3ccco3)=C(O)C(=O)N2c2nnc(C)s2)cc1` (centres undefined), the EC50 is > 300 µM (not active) in series [4]; > 79.4 µM (inactive) in series [5]; > 79.4 µM (not active) in series [6]; > 300 µM (not active) in series [7]; > 79.4 µM (not active) in [8]; > 53 µM (inactive) in [10]. The IC50 in [9] was > 47.1 µM (inactive).
Turning to `CN1CCN(c2ccc(-c3cccc(NC(=O)COc4ccc(Cl)cc4)c3)nn2)CC1`, the IC50 (in the series “cells [11]”; in [12]) was > 67.5 µM (inactive) each time.
Consider `Cc1ccnc(NC(=O)c2cccc(S(=O)(=O)N3CCOCC3)c2)c1`, for which the IC50 (in “cells [11]”; in series [12]) was > 67.5 µM (inactive) in each case.
On to `CCn1c(/C=C2/C(=O)N(C)c3ccccc32)nc2ccccc2c1=O`, for which, on Cytochrome P450 3A4, the AC50 result was “inconclusive”.
As for `O=C(OC1CCN(c2ncc(C(F)(F)F)cc2Cl)CC1)c1cccc(C(F)(F)F)c1`, the AC50 on Cytochrome P450 2C19 is 8.91 µM (inconclusive); on Cytochrome P450 2C9, 0.2 µM (inconclusive); at Cytochrome P450 3A4, “inconclusive”.
As to `CC(=Nc1ccccc1)C1=C(O)C(Cc2ccccc2)NC1=O` (centres undefined), the figures for the IC50 (in the series “cells [11]”; in series [12]) were > 67.6 µM (inactive) and 15.8 µM (inactive), respectively.
As to `CC(=O)Nc1ccc(-c2ccnc3c2CC(C(=O)NCc2ccccc2)O3)cc1` (centres undefined), the IC50 (in the series “cells [11]”; in series [12]) was > 67.5 µM (inactive) each time. Also, the AC50 on Paired box protein Pax-8 is 1.5 µM (active).
Consider `O=C(c1ccc(F)cc1)C1CCN(CCCCc2ccccc2)CC1`, for which the AC50 is 31.6 µM (inconclusive) at Cytochrome P450 1A2 and “inconclusive” at Cytochrome P450 3A4.
With `Cc1cc(/C=N\NC(=O)c2cccs2)c(C)n1-c1ccc2ncccc2c1`, the CC50 in series [13] was > 40 µM (active). Besides, the IC50 in “cells [14]” is 34 µM (active). Also, the AC50 was 39.8 µM (inconclusive) at Cytochrome P450 1A2 and “inconclusive” at Cytochrome P450 3A4.

As usually defined, the AC50 is the midpoint of the concentration-response curve, whichever way the signal moves.

These data come from ChEMBL document CHEMBL1201862, “PubChem BioAssay data set” (2004).
